Laboratory results reported in patent publication US20140199279A1, “METHODS FOR ENHANCING THE DELIVERY OF GENE-[…]” (Bluebird Bio, Inc., priority 2011, published 2014).
“And” between values parts separate entries of the source, which are not always exact repeats. Identical values can stand only once.

Legend:
bone marrow CD34+ cells = experiment: Puromycin selection of HPV654-transduced bone marrow CD34+ cells; PCR of CFU-GM colonies for lentiviral vector; format: cell-based, human; conditions: BM CD34+ cells, 5 μg/ml puromycin for 24 hours, 14 days growth
Method: (§1) Viral titers were determined by qPCR analysis of transduced NIH3T3 cells with proviral copy number controls.
(§2) Either fresh bone marrow (BM, Lonza, Walkersville, Md.) or cryopreserved G-CSF-mobilized peripheral blood (mPB, AllCells, Emeryville, Calif.) CD34^+ purified cells were used from normal human donors. At a cell concentration of 1×10^6/ml, the CD34 cells were prestimulated for 24 hours (BM) or 18 hours (mPB) in StemPro-34 SFM supplemented with L-glutamine, 100 ng/ml hSCF, 100 ng/ml hTPO, 100 ng/ml hFLT3-L and 20 ng/ml hIL-3 for BM or 60 ng/ml hIL-3 for mPB. The cells were then resuspended at a concentration of 4×10^6 (BM) or 3×10^6 (mPB) cells/ml in the same medium containing cytokines with additional supplementation with 8 μg/ml protamine sulfate and the HPV654 supernatant at either 10% (final exposed titer of 3×10^7 IU/ml with MOI of 7.5 for BM and 1×10^7 IU/ml with MOI of 3.3 for mPB) or 50% (final exposed titer of 1.5×108 IU/ml with MOI of 37.5 for BM and 5×10^7 IU/ml with MOI of 16.7 for mPB). […] Each colony was then analyzed for the presence of the lentiviral vector by PCR analysis of individual colonies using primers for erythropoietin gene for BM and human actin gene for mPB and primers specific for the lentiviral vector (GAG for BM and LTR for mPB).

[1] = system: G-CSF mobilized peripheral blood CD34+ cells; experiment: Puromycin selection of HPV654-transduced G-CSF mobilized peripheral blood CD34+ cells; PCR of CFU-GM colonies for lentiviral vector; format: cell-based, human
Method: as §1, §2

## COc1ccc(C[C@H](N)C(=O)N[C@H]2[C@@H](O)[C@H](n3cnc4c(N(C)C)ncnc43)O[C@@H]2CO)cc1 [puromycin]
Bone marrow CD34+ cells; 10% HPV654 supernatant
  colonies positive for the lentiviral vector (transduced cells): 100%
Bone marrow CD34+ cells; 50% HPV654 supernatant
  colonies positive for the lentiviral vector (transduced cells): 79%
[1]
  colonies positive for the lentiviral vector (transduced cells): 88% and 100%
